Test results as given in ChEMBL document CHEMBL1140726, “Discovery and biological evaluation of 5-aryl-2-furfuramides, potent and selective blockers of the Nav1.8 sodium channel with efficacy in models of neuropathic and inflammatory pain” (J Med Chem, 2008).

Tests used:
[1] = target: T1, Nav1.5 (sodium channel protein type 5 subunit alpha) (Homo sapiens, UniProt Q14524); experiment: (§1) Inhibition of human Nav1.5 channel at 1 uM; details: human
[2] = Activity at rat dorsal root ganglion in inactivated state with prepulse voltage of -40 mV assessed as blockade of TTx-resistant sodium current at 1 uM by whole-cell patch clamp technique; assay type: functional
[3] = target: T2, Sodium channel protein type 10 subunit alpha (Homo sapiens, UniProt Q9Y5Y9); experiment: Inhibition of human recombinant Nav 1.8 channel expressed in HEK293 cells at 0.1 uM; assay type: cell-based
[4] = target: Sodium channel protein type 3 subunit alpha (Homo sapiens) (UniProt Q9NY46); experiment: Inhibition of human Nav1.3 channel at 1 uM
[5] = target: T2, Sodium channel protein type 10 subunit alpha; experiment: Activity at human recombinant Nav 1.8 channel expressed in HEK293 cells in inactivated state with prepulse voltage of -40 mV assessed as blockade of TTx-resistant sodium current at 1 uM; assay type: cell-based
[6] = target: T2, Sodium channel protein type 10 subunit alpha; experiment: Activity at human recombinant Nav 1.8 channel expressed in HEK293 cells in resting state with prepulse voltage of -100 mV assessed as blockade of TTx-resistant sodium current at 1 uM; assay type: cell-based
[7] = Activity at rat dorsal root ganglion in inactivated state with prepulse voltage of -40 mV assessed as blockade of TTx-resistant sodium current at 0.3 uM by whole-cell patch clamp technique; assay type: functional
[8] = target: Sodium channel protein type 10 subunit alpha (Mus musculus, UniProt Q6QIY3); experiment: Inhibition of mouse recombinant Nav 1.8 channel expressed in HEK293 cells by isotopic efflux assay; assay type: cell-based
[9] = target: T2, Sodium channel protein type 10 subunit alpha; experiment: Activity at human recombinant Nav 1.8 channel expressed in HEK293 cells in inactivated state with prepulse voltage of -40 mV assessed as blockade of TTx-resistant sodium current at 0.1 uM; assay type: cell-based
[10] = Activity at rat dorsal root ganglion in resting state with prepulse voltage of -100 mV assessed as blockade of TTx-resistant sodium current at 1 uM by whole-cell patch clamp technique; assay type: functional
[11] = target: Voltage-gated inwardly rectifying potassium channel KCNH2 (Homo sapiens, UniProt Q12809); experiment: Inhibition of hERG potassium channel expressed in CHO cells by isotope efflux assay
[12] = Aqueous solubility of the compound; assay type: physicochemical
[13] = target: T2, Sodium channel protein type 10 subunit alpha; experiment: Activity at human recombinant Nav 1.8 channel expressed in HEK293 cells in resting state with prepulse voltage of -100 mV assessed as blockade of TTx-resistant sodium current at 0.1 uM; assay type: cell-based
[14] = Activity at rat dorsal root ganglion in resting state with prepulse voltage of -100 mV assessed as blockade of TTx-resistant sodium current at 0.3 uM by whole-cell patch clamp technique; assay type: functional
[15] = target: Sodium channel protein type 2 subunit alpha (Homo sapiens) (UniProt Q99250); experiment: Inhibition of human Nav1.2 channel at 1 uM
Sequence of Sodium channel protein type 2 subunit alpha (Homo sapiens) (Q99250 whole entry, looked up): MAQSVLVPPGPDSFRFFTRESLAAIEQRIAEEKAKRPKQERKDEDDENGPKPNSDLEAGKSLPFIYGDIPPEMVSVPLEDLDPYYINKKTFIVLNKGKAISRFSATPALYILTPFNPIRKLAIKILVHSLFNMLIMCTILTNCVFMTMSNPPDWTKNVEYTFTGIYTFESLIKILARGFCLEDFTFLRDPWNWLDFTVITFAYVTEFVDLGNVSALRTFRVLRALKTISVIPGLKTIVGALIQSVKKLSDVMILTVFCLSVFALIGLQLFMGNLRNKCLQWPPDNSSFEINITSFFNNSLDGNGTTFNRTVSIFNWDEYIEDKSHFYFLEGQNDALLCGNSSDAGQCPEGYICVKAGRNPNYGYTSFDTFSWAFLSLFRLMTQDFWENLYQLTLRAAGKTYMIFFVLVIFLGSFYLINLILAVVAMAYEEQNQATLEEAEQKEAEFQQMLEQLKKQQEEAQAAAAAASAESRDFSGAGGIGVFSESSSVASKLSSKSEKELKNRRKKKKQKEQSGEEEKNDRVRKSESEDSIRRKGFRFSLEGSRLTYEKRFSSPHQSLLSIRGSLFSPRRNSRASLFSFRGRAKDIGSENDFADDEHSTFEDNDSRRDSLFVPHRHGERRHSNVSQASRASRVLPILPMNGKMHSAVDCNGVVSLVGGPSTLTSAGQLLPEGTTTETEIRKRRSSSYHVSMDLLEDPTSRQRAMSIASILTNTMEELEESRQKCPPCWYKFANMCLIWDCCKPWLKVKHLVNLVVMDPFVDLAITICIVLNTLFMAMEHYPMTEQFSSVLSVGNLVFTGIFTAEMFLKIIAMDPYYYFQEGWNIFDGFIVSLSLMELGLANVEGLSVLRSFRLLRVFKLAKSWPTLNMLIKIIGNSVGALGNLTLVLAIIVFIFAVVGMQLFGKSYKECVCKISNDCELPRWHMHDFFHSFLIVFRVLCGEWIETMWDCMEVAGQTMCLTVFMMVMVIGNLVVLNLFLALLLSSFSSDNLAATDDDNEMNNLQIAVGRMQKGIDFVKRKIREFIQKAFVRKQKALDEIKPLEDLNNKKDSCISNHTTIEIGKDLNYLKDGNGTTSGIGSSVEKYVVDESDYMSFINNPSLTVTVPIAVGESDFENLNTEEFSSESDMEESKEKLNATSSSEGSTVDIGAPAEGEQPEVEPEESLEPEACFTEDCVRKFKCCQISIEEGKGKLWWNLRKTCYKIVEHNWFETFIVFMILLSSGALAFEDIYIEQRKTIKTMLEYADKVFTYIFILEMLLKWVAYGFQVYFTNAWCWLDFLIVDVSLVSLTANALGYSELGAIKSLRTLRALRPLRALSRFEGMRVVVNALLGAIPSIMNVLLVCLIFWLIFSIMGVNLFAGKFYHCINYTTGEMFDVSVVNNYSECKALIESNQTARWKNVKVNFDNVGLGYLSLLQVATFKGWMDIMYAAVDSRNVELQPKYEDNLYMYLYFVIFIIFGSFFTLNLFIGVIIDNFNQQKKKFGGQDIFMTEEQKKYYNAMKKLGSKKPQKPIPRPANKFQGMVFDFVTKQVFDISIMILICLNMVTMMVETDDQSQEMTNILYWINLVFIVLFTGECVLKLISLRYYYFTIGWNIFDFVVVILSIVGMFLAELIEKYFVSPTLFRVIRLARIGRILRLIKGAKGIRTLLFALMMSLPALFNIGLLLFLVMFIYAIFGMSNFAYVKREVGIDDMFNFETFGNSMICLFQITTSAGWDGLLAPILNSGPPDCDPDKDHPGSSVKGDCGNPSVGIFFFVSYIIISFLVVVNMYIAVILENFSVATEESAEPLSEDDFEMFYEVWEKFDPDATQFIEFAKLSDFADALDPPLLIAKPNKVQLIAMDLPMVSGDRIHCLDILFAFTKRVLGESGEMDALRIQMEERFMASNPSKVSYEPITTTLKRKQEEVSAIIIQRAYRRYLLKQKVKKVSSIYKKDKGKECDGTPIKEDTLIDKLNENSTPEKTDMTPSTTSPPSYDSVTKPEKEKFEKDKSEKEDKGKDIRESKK

[16] = Intrinsic clearance in Sprague-Dawley rat microsomes after 1 hr; assay type: ADME, Liver, Microsome
[17] = target: T2, Sodium channel protein type 10 subunit alpha; experiment: Inhibition of human recombinant Nav 1.8 channel expressed in HEK293 cells at 1 uM; assay type: cell-based
[18] = Oral bioavailability in Sprague-Dawley rat at 10 mg/kg; assay type: ADME, organism-based; details: in vivo
[19] = target: T1, Nav1.5 (sodium channel protein type 5 subunit alpha); experiment: Inhibition of human Nav1.5 channel at 10 uM
[20] = target: Sodium channel protein type 5 subunit alpha (Homo sapiens, UniProt Q14524); experiment: as §1
[21] = target: T3, 5-hydroxytryptamine receptor 2A (Homo sapiens, UniProt P28223); details: 10 uM
T3 sequence (P28223 whole entry): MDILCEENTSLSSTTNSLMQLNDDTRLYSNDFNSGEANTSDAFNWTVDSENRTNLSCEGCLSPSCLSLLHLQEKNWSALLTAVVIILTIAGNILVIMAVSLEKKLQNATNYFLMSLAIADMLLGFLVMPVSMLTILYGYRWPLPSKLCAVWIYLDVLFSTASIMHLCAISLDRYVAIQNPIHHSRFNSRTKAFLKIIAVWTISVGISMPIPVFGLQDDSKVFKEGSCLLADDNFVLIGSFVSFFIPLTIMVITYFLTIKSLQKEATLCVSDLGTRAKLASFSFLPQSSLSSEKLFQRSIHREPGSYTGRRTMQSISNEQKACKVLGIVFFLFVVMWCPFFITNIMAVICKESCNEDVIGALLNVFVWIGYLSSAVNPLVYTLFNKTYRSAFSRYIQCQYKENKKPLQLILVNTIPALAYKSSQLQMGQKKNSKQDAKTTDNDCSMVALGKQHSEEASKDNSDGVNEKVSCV

D(1A) dopamine receptor [22] = target: T4, D(1A) dopamine receptor (Homo sapiens, UniProt P21728); details: 10 uM
T4 sequence (P21728 whole entry): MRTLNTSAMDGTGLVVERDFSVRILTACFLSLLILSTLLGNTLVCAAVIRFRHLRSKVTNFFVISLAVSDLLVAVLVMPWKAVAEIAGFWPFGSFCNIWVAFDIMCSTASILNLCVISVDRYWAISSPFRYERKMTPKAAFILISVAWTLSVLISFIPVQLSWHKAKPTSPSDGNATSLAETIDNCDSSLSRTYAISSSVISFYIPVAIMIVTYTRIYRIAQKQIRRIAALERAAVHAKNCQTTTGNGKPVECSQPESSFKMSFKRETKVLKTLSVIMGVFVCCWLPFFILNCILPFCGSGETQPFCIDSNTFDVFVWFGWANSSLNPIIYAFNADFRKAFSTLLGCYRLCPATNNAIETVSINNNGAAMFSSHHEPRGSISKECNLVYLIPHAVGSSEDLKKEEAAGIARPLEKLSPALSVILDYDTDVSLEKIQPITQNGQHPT

[23] = target: T1, Nav1.5 (sodium channel protein type 5 subunit alpha); experiment: Inhibition of human Nav1.5 channel at 3 uM
[24] = target: Sodium channel protein type 2 subunit alpha (Homo sapiens) (UniProt Q99250); experiment: Inhibition of human Nav1.2 channel at 3 uM
[25] = Binding affinity to melatonin receptor 1
Rattus norvegicus [26] = experiment: Antinociceptive activity in ip dosed Sprague-Dawley rat assessed as attenuation of mechanical allodynia in chung model of neuropathic pain; assay type: functional
Translocator protein [27] = target: T5, Translocator protein (Homo sapiens, UniProt P30536); experiment: Binding affinity to peripheral benzodiazepine receptor
T5 sequence (P30536 whole entry): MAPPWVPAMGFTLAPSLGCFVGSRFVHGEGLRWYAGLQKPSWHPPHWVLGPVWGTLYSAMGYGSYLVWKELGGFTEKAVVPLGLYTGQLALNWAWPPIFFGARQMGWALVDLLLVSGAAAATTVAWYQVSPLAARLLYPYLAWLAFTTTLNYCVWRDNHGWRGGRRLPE

[28] = Volume of distribution at steady state in Sprague-Dawley rat; assay type: ADME, organism-based; details: in vivo, read-out: Vdss
[29] = target: Sodium channel protein type 3 subunit alpha (Homo sapiens) (UniProt Q9NY46); experiment: Inhibition of human Nav1.3 channel at 3 uM
[30] = target: T6, Cholecystokinin receptor type A (Homo sapiens) (UniProt P32238); details: 10 uM
T6 sequence (whole entry): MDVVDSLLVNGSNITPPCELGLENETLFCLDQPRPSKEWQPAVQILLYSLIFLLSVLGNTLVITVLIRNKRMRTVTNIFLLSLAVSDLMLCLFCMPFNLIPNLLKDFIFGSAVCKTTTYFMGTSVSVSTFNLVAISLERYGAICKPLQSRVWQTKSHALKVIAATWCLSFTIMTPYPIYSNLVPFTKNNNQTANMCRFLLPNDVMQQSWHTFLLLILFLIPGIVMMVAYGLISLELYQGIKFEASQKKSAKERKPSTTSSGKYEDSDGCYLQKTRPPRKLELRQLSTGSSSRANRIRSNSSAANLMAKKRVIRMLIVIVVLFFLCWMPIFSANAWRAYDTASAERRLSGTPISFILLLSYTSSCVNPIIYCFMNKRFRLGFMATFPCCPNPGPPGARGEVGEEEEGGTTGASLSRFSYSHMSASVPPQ

Rattus norvegicus [31] = experiment: Antinociceptive activity in ip dosed Sprague-Dawley rat assessed as reduction of CFA-induced thermal hyperalgesia; assay type: functional; set-up: Activity: scale not given: the % may be the effect or the level left
[32] = target: Sodium channel protein type 9 subunit alpha (Homo sapiens) (UniProt Q15858); experiment: Inhibition of human Nav1.7 channel at 3 uM
Translocator protein [33] = target: T5, Translocator protein; experiment: Binding affinity to peripheral benzodiazepine receptor at 10 uM
[34] = target: T2, Sodium channel protein type 10 subunit alpha; experiment: Activity at human recombinant Nav 1.8 channel expressed in HEK293 cells in resting state with prepulse voltage of -100 mV assessed as blockade of TTx-resistant sodium current at 0.01 uM; assay type: cell-based
[35] = target: Sodium channel protein type 3 subunit alpha (Homo sapiens) (UniProt Q9NY46); experiment: Inhibition of human Nav1.3 channel at 10 uM
[36] = target: T2, Sodium channel protein type 10 subunit alpha; experiment: Activity at human recombinant Nav 1.8 channel expressed in HEK293 cells in resting state with prepulse voltage of -100 mV assessed as blockade of TTx-resistant sodium current at 0.003 uM; assay type: cell-based
[37] = Activity at rat dorsal root ganglion in inactivated state with prepulse voltage of -40 mV assessed as blockade of TTx-resistant sodium current at 0.1 uM by whole-cell patch clamp technique; assay type: functional
[38] = target: T2, Sodium channel protein type 10 subunit alpha; experiment: Inhibition of human recombinant Nav 1.8 channel expressed in HEK293 cells at 0.01 uM; assay type: cell-based
D(1A) dopamine receptor [39] = target: T4, D(1A) dopamine receptor; experiment: Binding affinity to dopamine D1 receptor
[40] = target: T7, Cholecystokinin receptor type A (Homo sapiens, UniProt P32238); experiment: Binding affinity to CCKAR
T7 sequence (P32238 whole entry): T6 sequence (whole entry)

[41] = target: T2, Sodium channel protein type 10 subunit alpha; experiment: Activity at human recombinant Nav 1.8 channel expressed in HEK293 cells in inactivated state with prepulse voltage of -40 mV assessed as blockade of TTx-resistant sodium current at 0.01 uM; assay type: cell-based
[42] = target: T3, 5-hydroxytryptamine receptor 2A; experiment: Binding affinity to 5HT2A receptor
[43] = Half life in Sprague-Dawley rat; assay type: ADME, organism-based; details: in vivo
[44] = target: Sodium channel protein type 2 subunit alpha (Homo sapiens) (UniProt Q99250); experiment: Inhibition of human Nav1.2 channel at 10 uM
[45] = target: T2, Sodium channel protein type 10 subunit alpha; experiment: Inhibition of human recombinant Nav 1.8 channel expressed in HEK293 cells at 0.003 uM; assay type: cell-based
[46] = target: T2, Sodium channel protein type 10 subunit alpha; experiment: Activity at human recombinant Nav 1.8 channel expressed in HEK293 cells in inactivated state with prepulse voltage of -40 mV assessed as blockade of TTx-resistant sodium current at 0.003 uM; assay type: cell-based
[47] = Ratio of drug level in brain to plasma in Sprague-Dawley rat; assay type: ADME
[48] = Activity at rat dorsal root ganglion in resting state with prepulse voltage of -100 mV assessed as blockade of TTx-resistant sodium current at 0.1 uM by whole-cell patch clamp technique; assay type: functional
Rattus norvegicus [49] = experiment: Antinociceptive activity in ip dosed Sprague-Dawley rat assessed as reduction of mechanical allodynia in Bennett model of neuropathic pain; assay type: functional; set-up: Activity: scale not given: the % may be the effect or the level left
[50] = target: Sodium channel protein type 9 subunit alpha (Homo sapiens) (UniProt Q15858); experiment: Inhibition of human Nav1.7 channel at 10 uM
[51] = Rattus norvegicus, Sprague-Dawley, ip

T1 sequence (Q14524 whole entry): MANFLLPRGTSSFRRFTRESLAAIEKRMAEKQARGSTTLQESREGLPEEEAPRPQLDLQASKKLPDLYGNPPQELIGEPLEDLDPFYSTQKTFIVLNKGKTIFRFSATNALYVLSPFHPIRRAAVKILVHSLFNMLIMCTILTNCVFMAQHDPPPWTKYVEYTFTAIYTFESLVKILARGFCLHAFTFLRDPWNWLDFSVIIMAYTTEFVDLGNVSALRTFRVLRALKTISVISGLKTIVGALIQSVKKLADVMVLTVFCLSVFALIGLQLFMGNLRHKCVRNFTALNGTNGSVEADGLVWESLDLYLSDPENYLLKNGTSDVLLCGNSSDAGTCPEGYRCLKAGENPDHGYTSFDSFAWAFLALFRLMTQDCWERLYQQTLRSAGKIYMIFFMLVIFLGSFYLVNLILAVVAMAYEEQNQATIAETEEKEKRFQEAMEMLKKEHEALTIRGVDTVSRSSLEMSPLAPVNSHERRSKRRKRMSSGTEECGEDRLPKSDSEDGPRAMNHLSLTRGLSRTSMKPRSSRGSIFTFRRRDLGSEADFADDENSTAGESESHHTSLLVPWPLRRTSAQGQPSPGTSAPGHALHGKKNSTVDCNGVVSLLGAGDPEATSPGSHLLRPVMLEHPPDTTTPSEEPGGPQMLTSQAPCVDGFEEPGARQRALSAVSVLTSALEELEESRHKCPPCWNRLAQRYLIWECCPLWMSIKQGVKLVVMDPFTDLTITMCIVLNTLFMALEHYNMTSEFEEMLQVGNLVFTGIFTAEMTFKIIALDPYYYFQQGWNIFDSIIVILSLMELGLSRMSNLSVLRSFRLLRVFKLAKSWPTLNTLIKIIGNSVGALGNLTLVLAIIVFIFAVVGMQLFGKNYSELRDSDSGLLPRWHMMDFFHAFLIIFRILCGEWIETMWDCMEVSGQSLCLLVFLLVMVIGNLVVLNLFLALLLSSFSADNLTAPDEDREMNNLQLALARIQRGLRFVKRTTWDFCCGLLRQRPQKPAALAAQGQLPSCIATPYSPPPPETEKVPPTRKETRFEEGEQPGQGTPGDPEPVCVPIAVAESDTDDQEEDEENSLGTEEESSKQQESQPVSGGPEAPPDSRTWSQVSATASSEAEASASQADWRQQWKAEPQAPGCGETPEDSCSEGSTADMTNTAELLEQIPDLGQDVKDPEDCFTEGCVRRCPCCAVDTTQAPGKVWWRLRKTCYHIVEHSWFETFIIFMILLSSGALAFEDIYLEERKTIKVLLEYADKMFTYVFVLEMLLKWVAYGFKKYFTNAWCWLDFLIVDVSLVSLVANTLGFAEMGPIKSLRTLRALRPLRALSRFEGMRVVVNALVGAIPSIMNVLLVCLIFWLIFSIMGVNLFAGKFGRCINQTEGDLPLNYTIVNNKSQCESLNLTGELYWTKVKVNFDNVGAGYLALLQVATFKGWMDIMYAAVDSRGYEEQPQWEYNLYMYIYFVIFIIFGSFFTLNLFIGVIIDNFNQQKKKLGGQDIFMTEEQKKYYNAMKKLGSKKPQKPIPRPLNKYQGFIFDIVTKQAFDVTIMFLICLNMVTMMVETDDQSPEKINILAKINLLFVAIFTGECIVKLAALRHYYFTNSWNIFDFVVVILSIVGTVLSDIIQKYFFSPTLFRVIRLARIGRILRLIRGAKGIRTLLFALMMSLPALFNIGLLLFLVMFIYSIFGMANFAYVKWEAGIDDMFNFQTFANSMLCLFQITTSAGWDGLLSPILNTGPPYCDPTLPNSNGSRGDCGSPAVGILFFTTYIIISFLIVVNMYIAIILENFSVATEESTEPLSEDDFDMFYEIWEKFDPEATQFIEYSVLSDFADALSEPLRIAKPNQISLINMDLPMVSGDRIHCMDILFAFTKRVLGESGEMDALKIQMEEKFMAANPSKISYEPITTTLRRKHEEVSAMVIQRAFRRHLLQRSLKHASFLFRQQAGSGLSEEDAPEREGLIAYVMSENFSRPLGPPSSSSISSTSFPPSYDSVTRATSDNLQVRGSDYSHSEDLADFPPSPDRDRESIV

## Cc1cccc(NC(=N)c2ccc(-c3ccc(Cl)cc3)o2)c1.Cl
[1]
  inhibition at 1 µM: 56%
[2]
  inhibition at 1 µM: 60%
[3]
  inhibition: 46%
[4]
  inhibition: 36%
[5]
  inhibition: 75%
[6]
  inhibition: 5%
[7]
  inhibition at 0.3 µM: 45%
[8]
  IC50: 1900 nM
[9]
  inhibition: 46%
[10]
  inhibition at 1 µM: 10%
[11]
  IC50: 2100 nM
[12]
  solubility: 250 µg/mL
[13]
  inhibition: 1%
[14]
  inhibition at 0.3 µM: 2%
[15]
  inhibition: 52%
[16]
  microsomal CLint: 220 µL/min/mg
[17]
  inhibition: 75%
[18]
  bioavailability: 67%

## COc1cc(NC(=O)c2ccc(-c3ccc(Cl)cc3)o2)cc(OC)c1
[19]
  inhibition at 10 µM: 49%
[20]
  IC50: > 2000 nM
[21]
  inhibition: > 60%
D(1A) dopamine receptor [22]
  inhibition: > 60%
[23]
  inhibition at 3 µM: 44%
[24]
  inhibition: 41%
[25]
  IC50: > 2000 nM
Rattus norvegicus [26]
  Activity: 70%
Rattus norvegicus [26]; [51]
  ED50: 47 mg/kg
Translocator protein [27]
  IC50: > 2000 nM
[28]
  Vd: 6.4 L/kg
[29]
  inhibition: 52%
[30]
  inhibition: > 60%
Rattus norvegicus [31]
  Activity: 64%
Rattus norvegicus [31]; [51]
  ED50: 41 mg/kg
[32]
  inhibition: 42%
Translocator protein [33]
  inhibition: > 60%
[34]
  inhibition: 19%
[35]
  inhibition: 70%
[36]
  inhibition: 5%
[37]
  inhibition at 0.1 µM: 48%
[7]
  inhibition at 0.3 µM: 71%
[38]
  inhibition: 59%
D(1A) dopamine receptor [39]
  IC50: > 2000 nM
[40]
  IC50: > 2000 nM
[41]
  inhibition: 59%
[42]
  IC50: > 2000 nM
[8]
  IC50: 850 nM
[43]
  half-life: 7.3 h
[44]
  inhibition: 53%
[14]
  inhibition at 0.3 µM: 48%
[45]
  inhibition: 30%
[46]
  inhibition: 30%
[47]
  Kp: 1.1
[48]
  inhibition at 0.1 µM: 14%
[16]
  microsomal CLint: 140 µL/min/mg
Rattus norvegicus [49]
  Activity: 56%
Rattus norvegicus [49]; [51]
  ED50: 85 mg/kg
[50]
  inhibition: 54%
